Our source for the EC50 values is patent US10508113B2, “Inhibitors of tyrosine kinase 2 mediated signaling” (AbbVie Inc., priority 2018, dated 2019).

The target of the experiment is T1, Tyk2/Jak2 (Homo sapiens, UniProt P29597).
T1 construct: Cell Type: Frozen primary phytohemagglutinin (PHA) T-Blasts; endogenous in cells; host or cells: primary PHA T-blasts
Kind of experiment: Tyk2 (Tyk2/Jak2 PSTAT4 T-Blast) alpha screen assay: inhibition of IL-12 induced phosphorylation of STAT4 in T-blast cells. The following applies: IL-12 induced pSTAT4, T-blast cells. The class given is cell-based. Here is the method:
1. TYK2 (TYK2/JAK2 PSTAT4 T-BLAST) ALPHA SCREEN ASSAY
IL-12 is known to transduce its signal through IL-12 receptor via Jak2 and/or Tyk2. For that reason, the activity against Tyk2/Jak2 was measured by determining the inhibition of IL-12 induced phosphorylation of STAT4 in T-blast cells. […] See, e.g., Sohn et al., J. Immunology (2013) 2205-2216.
Cell Type: Frozen primary phytohemagglutinin (PHA) T-Blasts; Culture Medium: Roswell Park Memorial Institute (RPMI) 1640 Medium, 10% heat-inactivated fetal bovine serum (FBS), 1% penicillin/streptomycin (Pen-Strep), 10 mM hydroxyethyl piperazineethanesulfonic acid (HEPES), 10 ng/mL recombinant human interleukin-12 (rhIL-12); Assay Medium: Hank's Balanced Salt Solution (HBSS), no phenol red.
i. Automated 11-point 1:3 dilution curve: 2.5 mM top concentration dispensed in column 1 of a Corning 96-well polypropylene plate. Dimethyl sulfoxide (DMSO) was added to column 12 for high and low controls. Compounds were serially diluted 1:3 by adding 20 uL stock to 40 μL DMSO across the plate via Hamilton Microlab Star instrument.
ii. Media dilution of compounds: Serially diluted compounds were diluted 1:50 in assay medium by adding 4 μL compound to 196 μL assay medium in a Corning 96-well polypropylene plate (now 2% DMSO).
iii. […]
Primary T-Blasts from overnight culture were centrifuged, washed once in assay medium, and pelleted. T-Blasts were counted and resuspended at 12,500,000 cells/mL. […]
Phosphorylated Signal Transducer and Activator of Transcription 4 (pSTAT4) was quantified using the PerkinElmer SureFire Ultra pSTAT4 (Tyrosine 693) Assay. […]
Make master mix of Protein A donor beads using the following volumes per well: 5.88 μL Dilution Buffer and 0.12 μL […]. […] Read plate on Perkin Elmer Envision. […]
Certain compounds listed in Table C were tested for Tyk2 activity following the aforementioned Tyk2 (Tyk2/Jak2 PSTAT4 T-Blast) alpha screen assay and Jak2 (PTATS UT7) alpha screen assay. […] Selectivity for Tyk2 over Jak1, and Tyk2 over Jak2, are calculated from the tabulated activity data.

T1 sequence (P29597 whole entry, other chains not shown): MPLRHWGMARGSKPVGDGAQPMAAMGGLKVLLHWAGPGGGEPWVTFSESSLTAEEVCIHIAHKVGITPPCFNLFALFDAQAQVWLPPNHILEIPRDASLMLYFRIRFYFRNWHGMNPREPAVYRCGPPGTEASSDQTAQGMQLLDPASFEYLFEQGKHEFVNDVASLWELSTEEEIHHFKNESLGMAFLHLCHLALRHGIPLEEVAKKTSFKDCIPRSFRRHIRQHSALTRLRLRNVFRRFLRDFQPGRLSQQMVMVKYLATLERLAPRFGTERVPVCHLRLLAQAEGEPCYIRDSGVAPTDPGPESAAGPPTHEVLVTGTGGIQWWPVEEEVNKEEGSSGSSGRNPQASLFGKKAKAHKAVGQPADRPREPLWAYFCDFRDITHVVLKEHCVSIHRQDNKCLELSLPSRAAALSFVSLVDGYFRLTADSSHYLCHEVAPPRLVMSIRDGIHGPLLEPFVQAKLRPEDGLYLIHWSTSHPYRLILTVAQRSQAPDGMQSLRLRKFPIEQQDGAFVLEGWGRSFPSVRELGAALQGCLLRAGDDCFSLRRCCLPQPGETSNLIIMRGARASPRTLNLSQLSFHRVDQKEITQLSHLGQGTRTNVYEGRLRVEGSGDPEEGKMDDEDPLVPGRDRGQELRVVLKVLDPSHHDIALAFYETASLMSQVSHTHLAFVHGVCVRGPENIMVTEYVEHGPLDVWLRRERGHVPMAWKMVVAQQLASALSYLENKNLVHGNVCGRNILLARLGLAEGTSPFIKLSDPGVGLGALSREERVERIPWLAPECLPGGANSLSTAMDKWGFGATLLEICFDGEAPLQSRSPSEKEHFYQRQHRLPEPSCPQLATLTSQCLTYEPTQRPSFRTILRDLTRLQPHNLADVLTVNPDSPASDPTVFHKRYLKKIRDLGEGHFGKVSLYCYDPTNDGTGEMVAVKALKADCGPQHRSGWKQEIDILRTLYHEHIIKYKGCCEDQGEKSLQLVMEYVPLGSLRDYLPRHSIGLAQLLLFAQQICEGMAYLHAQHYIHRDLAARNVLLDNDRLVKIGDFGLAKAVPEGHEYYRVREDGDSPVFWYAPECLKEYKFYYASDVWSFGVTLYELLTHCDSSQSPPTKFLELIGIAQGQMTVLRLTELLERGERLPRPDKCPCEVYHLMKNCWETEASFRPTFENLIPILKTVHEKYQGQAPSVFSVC

As for `CC(=O)Nc1cc2c(-c3cccc([C@@]4(CO)CCOC4)n3)c[nH]c2cn1` [21-NH (R-isomer)], the EC50 came out at 0.54 µM. In other words, the sub-micromolar range.

Usually EC50 stands for the concentration that produces a half-maximal response.
